Consider 15 molecules from patent publication US20240228458A1, “PYRIMIDINE DERIVATIVE HAVING PROTEIN KINASE INHIBITORY ACTIVITY, AND THERAPEUTIC PHARMACEUTICAL COMPOSITION COMPRISING SAME” (THERAPEX CO., LTD., priority 2021, published 2024).

Holding throughout (assay type): cell-based
For assay [1], the system named is Ba/F3 cells expressing L858R/T790M/C797S (EGFR-LTC). The experiment in a line: Growth inhibition (GI50) of Ba/F3 cells expressing L858R/T790M/C797S (EGFR-LTC), Celltiter glo. Conditions: Mus musculus, BaF3, 72 h. A digest of the protocol: (§1)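 Viable-cell luminescence (CellTiter-Glo) after 72 h compound exposure at 37 °C, 5% CO2 gave GI50 (μM, 50% growth inhibition). Compounds were 4-fold serial dilutions, 10 points, from a 2 mM stock, 0.5% DMSO, added 4 h after plating EGFR-variant Ba/F3 cells at 100,000 cells/ml.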
For orientation: Cellular ATP, detected with luciferase, serves as a proxy for viable cell number.

Assay [2] concerns Ba/F3 cells expressing del19/T790M/C797S (EGFR-DTC). The experiment in a line: Growth inhibition (GI50) of Ba/F3 cells expressing del19/T790M/C797S (EGFR-DTC), Celltiter glo. Conditions: Mus musculus, BaF3, 72 h. A digest of the protocol: as §1
In another assay the test system is parental Ba/F3 cell line. In words: Growth inhibition (GI50) of the parental Ba/F3 cell line (not introduced with EGFR variants), Celltiter glo. The following applies: Mus musculus, BaF3, 72 h, parental Ba/F3 cells. The procedure, abridged:
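Parental Ba/F3 cells (100,000 cells/ml) were treated with 10-point, 4-fold compound dilutions (0.5% DMSO; top stock 2 mM) for 72 h at 37 °C, 5% CO2. Viability was read by CellTiter-Glo; GI50 is the concentration (μM) giving 50% growth inhibition.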

Assay [3] concerns Ba/F3 cells expressing L858R/T790M (EGFR-LT). The experiment in a line: Growth inhibition (GI50) of Ba/F3 cells expressing L858R/T790M (EGFR-LT), Celltiter glo. The following applies: Mus musculus, BaF3, 72 h. A digest of the protocol: as §1
For assay [4], the system named is Ba/F3 cells expressing del19/T790M (EGFR-DT). In words: Growth inhibition (GI50) of Ba/F3 cells expressing del19/T790M (EGFR-DT), Celltiter glo. The following applies: Mus musculus, BaF3, 72 h. The procedure, abridged: as §1
Assay [5] relates to Ba/F3 cells expressing EGFR-wt. In words: Growth inhibition (GI50) of Ba/F3 cells expressing EGFR-wt, Celltiter glo. Conditions: Mus musculus, BaF3, 72 h. A digest of the protocol: as §1

Where only a bound is given, the exact number is not on record here.

The GI50 is the concentration giving 50% growth inhibition. As for `COc1cc(N2CCC(N3CCCN(C)CC3)CC2)c(C)cc1Nc1ncc(Cl)c(Nc2cc3c(cc2NS(C)(=O)=O)CCO3)n1` [Example 165, N-(6-((5-chloro-2-((2-methoxy-5-methyl-4-(4-(4-methyl-1,4-diazepan-1-yl)piperidin-1-yl)phenyl)amino)pyrimidin-4-yl)amino)-2,3-dihydrobenzofuran-5-yl)methanesulfonamide], the 50% growth inhibitory concentration (GI50) lay in the range of 25 to 100 nM in assay [1]; 25 to 100 nM in assay [2]; 2000 to 10000 nM in the assay with parental Ba/F3 cell line; 25 to 100 nM in assay [3]; 25 to 100 nM in assay [4]; 500 to 2000 nM in assay [5].
Regarding `CN(C)CCCn1cc(Nc2ncc(Cl)c(Nc3cc(Cl)ccc3NS(C)(=O)=O)n2)cn1` [Example 167, N-(4-chloro-2-((5-chloro-2-((1-(3-(dimethylamino)propyl)-1H-pyrazol-4-yl)amino)pyrimidine-4-yl)amino)phenyl)methanesulfonamide], the GI50 lay within 2000 to 10000 nM in assay [1]; 100 to 500 nM in assay [2]; 2000 to 10000 nM in the assay with parental Ba/F3 cell line; 2000 to 10000 nM in assay [3]; 2000 to 10000 nM in assay [4]; 500 to 2000 nM in assay [5].
On to `COc1cc(N2CCC(N3CCN(C)CC3)CC2)c(Cl)cc1Nc1ncc(Cl)c(Nc2cc3c(cc2NS(C)(=O)=O)CCO3)n1` [Example 168, N-(6-((5-chloro-2-((5-chloro-2-methoxy-4-(4-(4-methylpiperazin-1-yl)piperidin-1-yl)phenyl)amino)pyrimidin-4-yl)amino)-2,3-dihydrobenzofuran-5-yl)methanesulfonamide], for which the GI50 was in the range of 1 to 25 nM in assay [1]; 1 to 25 nM in assay [2]; 2000 to 10000 nM with parental Ba/F3 cell line; 1 to 25 nM in assay [3]; 1 to 25 nM in assay [4]; 25 to 100 nM in assay [5].
`COc1cc(N2CCC(N3CCN(C)CC3)CC2)c(C)cc1Nc1ncc(Br)c(Nc2cc3c(cc2NS(C)(=O)=O)CCO3)n1` [Example 169, N-(6-((5-bromo-2-((2-methoxy-5-methyl-4-(4-(4-methylpiperazin-1-yl)piperidin-1-yl)phenyl)amino)pyrimidin-4-yl)amino)-2,3-dihydrobenzofuran-5-yl)methanesulfonamide]: the GI50 fell in the range of 1 to 25 nM in assay [1]; 1 to 25 nM in assay [2]; 500 to 2000 nM with parental Ba/F3 cell line; 1 to 25 nM in assay [3]; 1 to 25 nM in assay [4]; 100 to 500 nM in assay [5].
Take `COc1cc(N2CCC(N3CCN(C)CC3)CC2)c(Cl)cc1Nc1ncc(Cl)c(Nc2cc(Cl)ccc2N(C)S(C)(=O)=O)n1` [Example 170, N-(4-chloro-2-((5-chloro-2-((5-chloro-2-methoxy-4-(4-(4-methylpiperazin-1-yl)piperidin-1-yl)phenyl)amino)pyrimidin-4-yl)amino)phenyl)-N-methylmethanesulfonamide]: the GI50 in assay [1] was 1 to 25 nM; in assay [2] it was 1 to 25 nM; in the assay with parental Ba/F3 cell line, 100 to 500 nM; in assay [3], 1 to 25 nM; in assay [4], 1 to 25 nM; in assay [5], 25 to 100 nM.
Take `Cc1cc(Nc2ncc(Cl)c(Nc3cc4c(cc3NS(C)(=O)=O)CCO4)n2)c(Cl)cc1N1CCC(N2CCCN(C)CC2)CC1` [Example 172, N-(6-((5-chloro-2-((2-chloro-5-methyl-4-(4-(4-methyl-1,4-diazepan-1-yl)piperidin-1-yl)phenyl)amino)pyrimidin-4-yl)amino)-2,3-dihydrobenzofuran-5-yl)methanesulfonamide]: the GI50 in assay [1] lay in the range of 1 to 25 nM; in assay [2], 1 to 25 nM; in the assay on parental Ba/F3 cell line it was 100 to 500 nM; in assay [3] it was 1 to 25 nM; in assay [4], 25 to 100 nM; in assay [5], 100 to 500 nM.
As to `Cc1cc(Nc2ncc(Cl)c(Nc3cc4c(cc3NS(C)(=O)=O)CCO4)n2)c(Cl)cc1N1CCC(N2CCN(C)CC2)CC1` [Example 173, N-(6-((5-chloro-2-((2-chloro-5-methyl-4-(4-(4-methylpiperazin-1-yl)piperidin-1-yl)phenyl)amino)pyrimidin-4-yl)amino)-2,3-dihydrobenzofuran-5-yl)methanesulfonamide], the GI50 in assay [1] was 25 to 100 nM; in assay [2], 25 to 100 nM; in the assay with parental Ba/F3 cell line, 100 to 500 nM; in assay [3], 1 to 25 nM; in assay [4] it was 1 to 25 nM; in assay [5] it was 100 to 500 nM.
Consider `COc1cc(N2CCC(N3CCCN(C)CC3)CC2)c(Cl)cc1Nc1ncc(Cl)c(Nc2cc3c(cc2NS(C)(=O)=O)CCO3)n1` [Example 174, N-(6-((5-chloro-2-((5-chloro-2-methoxy-4-(4-(4-methyl-1,4-diazepan-1-yl)piperidin-1-yl)phenyl)amino)pyrimidin-4-yl)amino)-2,3-dihydrobenzofuran-5-yl)methanesulfonamide], for which the GI50 is 25 to 100 nM in assay [1]; 1 to 25 nM in assay [2]; 500 to 2000 nM in the assay on parental Ba/F3 cell line; 1 to 25 nM in assay [3]; 1 to 25 nM in assay [4]; 100 to 500 nM in assay [5].
On to `Cc1cc(Nc2ncc(Br)c(Nc3cc4c(cc3NS(C)(=O)=O)CCO4)n2)c(Cl)cc1N1CCC(N2CCN(C)CC2)CC1` [Example 175, N-(6-((5-bromo-2-((2-chloro-5-methyl-4-(4-(4-methylpiperazin-1-yl)piperidin-1-yl)phenyl)amino)pyrimidin-4-yl)amino)-2,3-dihydrobenzofuran-5-yl)methanesulfonamide], for which the GI50 in assay [1] is 25 to 100 nM; in assay [2], 25 to 100 nM; in the assay on parental Ba/F3 cell line, > 10000 nM; in assay [3], 100 to 500 nM; in assay [4], 100 to 500 nM; in assay [5], 500 to 2000 nM.
Regarding `COc1cc(N2CCC(N3CCN(C)CC3)CC2)c(C)cc1Nc1ncc(Cl)c(Nc2cc(Cl)c(F)cc2NS(C)(=O)=O)n1` [Example 176, N-(4-chloro-2-((5-chloro-2-((2-methoxy-5-methyl-4-(4-(4-methylpiperazin-1-yl)piperidin-1-yl)phenyl)amino)pyrimidin-4-yl)amino)-5-fluorophenyl)methanesulfonamide], the GI50 in assay [1] lay within 1 to 25 nM; in assay [2], 1 to 25 nM; with parental Ba/F3 cell line, 500 to 2000 nM; in assay [3], 25 to 100 nM; in assay [4], 25 to 100 nM; in assay [5], 100 to 500 nM.
For the molecule `Cc1cc(Nc2ncc(Br)c(Nc3cc(Cl)c(F)cc3NS(C)(=O)=O)n2)c(Cl)cc1N1CCC(N2CCN(C)CC2)CC1` [Example 177, N-(2-((5-bromo-2-((2-chloro-5-methyl-4-(4-(4-methylpiperazin-1-yl)piperidin-1-yl)phenyl)amino)pyrimidin-4-yl)amino)-4-chloro-5-fluorophenyl)methanesulfonamide], the GI50 in assay [1] was in the range of 1 to 25 nM; in assay [2], 25 to 100 nM; with parental Ba/F3 cell line it was 2000 to 10000 nM; in assay [3] it was 100 to 500 nM; in assay [4], 100 to 500 nM; in assay [5] it was 2000 to 10000 nM.
On to `COc1cc(N2CCC(N3CCN(C)CC3)CC2)c(Cl)cc1Nc1ncc(Br)c(Nc2cc(Cl)c(F)cc2NS(C)(=O)=O)n1` [Example 178, N-(2-((5-bromo-2-((5-chloro-2-methoxy-4-(4-(4-methylpiperazin-1-yl)piperidin-1-yl)phenyl)amino)pyrimidin-4-yl)amino)-4-chloro-5-fluorophenyl)methanesulfonamide], for which the GI50 in assay [1] is 25 to 100 nM; in assay [2], 1 to 25 nM; in the assay with parental Ba/F3 cell line it was 2000 to 10000 nM; in assay [3], 25 to 100 nM; in assay [4], 25 to 100 nM; in assay [5] it was 500 to 2000 nM.
Turning to `Cc1cc(Nc2ncc(Cl)c(Nc3cc(Cl)ccc3N(C)S(C)(=O)=O)n2)c(Cl)cc1N1CCC(N2CCC(N(C)C)C2)CC1` (stereo not drawn) [Example 179, N-(4-chloro-2-((5-chloro-2-((2-chloro-4-(4-(3-(dimethylamino)pyrrolidin-1-yl)piperidin-1-yl)-5-methylphenyl)amino)pyrimidin-4-yl)amino)phenyl)-N-methylmethanesulfonamide], the GI50 lay within 25 to 100 nM in assay [1]; 100 to 500 nM in assay [2]; 500 to 2000 nM with parental Ba/F3 cell line; 25 to 100 nM in assay [3]; 100 to 500 nM in assay [4]; 100 to 500 nM in assay [5].
With `Cc1cc(Nc2ncc(Cl)c(Nc3cc(Cl)ccc3N(C)S(C)(=O)=O)n2)c(Cl)cc1N1CCC(N2CCCN(C)CC2)CC1` [Example 180, N-(4-chloro-2-((5-chloro-2-((2-chloro-5-methyl-4-(4-(4-methyl-1,4-diazepan-1-yl)piperidin-1-yl)phenyl)amino)pyrimidin-4-yl)amino)phenyl)-N-methylmethanesulfonamide], the GI50 in assay [1] is 25 to 100 nM; in assay [2], 25 to 100 nM; in the assay with parental Ba/F3 cell line, 2000 to 10000 nM; in assay [3] it was 25 to 100 nM; in assay [4], 25 to 100 nM; in assay [5], 500 to 2000 nM.
For `COc1cc(N2CCC(N3CCN(C)CC3)CC2)c(Cl)cc1Nc1ncc(Cl)c(Nc2cc(Cl)c(F)cc2NS(C)(=O)=O)n1` [Example 181, N-(4-chloro-2-((5-chloro-2-((5-chloro-2-methoxy-4-(4-(4-methylpiperazin-1-yl)piperidin-1-yl)phenyl)amino)pyrimidin-4-yl)amino)-5-fluorophenyl)methanesulfonamide], the GI50 lay in the range of 25 to 100 nM in assay [1]; 100 to 500 nM in assay [2]; 2000 to 10000 nM in the assay on parental Ba/F3 cell line; 25 to 100 nM in assay [3]; 25 to 100 nM in assay [4]; 500 to 2000 nM in assay [5].
